Data published in patent US11180479B2 (HAPLOGEN GmbH, priority 2017, dated 2021).

Key:
[1] = test system: picornaviruses (CVB1, HRV-A2, HRV-A23, EV-68); test: Anti-picornavirus cytopathic effect (CPE) reduction assay on HeLa H1 cells; assay type: cell-based; conditions: 48 h, category from averaging EC50 values of four picornaviruses (CVB1, HRV-A2, HRV-A23, EV68), second symbol in parentheses
Experimental: Anti-Picornavirus Assay in Mammalian Cell Culture
The antiviral activity of selected compounds was tested using a cytopathic effect (CPE) reduction assay on HeLa H1 cells (ATCC CRL-1958). Briefly, cells were seeded in 96-well dishes (2×10^4 cells/well) in DMEM medium (Life technologies) supplemented with 10% FBS and PenStrep solution (100 U/mL Penicillin and 100 μg/mL streptomycin) and incubated at 37° C., 5% CO2 overnight. The next day, cells were pre-treated with serial dilutions of the compound in DMEM medium supplemented with 2% FBS and PenStrep for 2 h at 37° C., 5% CO2. Next, cells were infected with virus (CVB1, HRV-A2, HRV-A23, EV-68) at an multiplicity of infection (MOI) which results in a complete virus-induced CPE within 2 days in control wells (infected and vehicle-treated). After 48 h, supernatants were aspirated and 50 μl/well of CellTiterBlue reagent (Promega) diluted 1:5 in DMEM+2% FBS, was added to the cells. Plates were returned to the incubator and allowed to develop for 1.5 h. After that, plates were equilibrated to RT and subsequently, fluorescence was recorded (Excitation wavelength: 560 nm; emission wavelength: 590 nm) using a SpectraMax M5 multimode plate reader. Viability of cells was calculated according to the formula: V=(RFUCpd−RFUVeh/(RFUM−RFUVeh), where RFUCpd refers to infected and compound-treated cells, RFUVeh to infected and vehicle-treated cells and RFUM to uninfected and vehicle treated cells. Half-maximal effective concentrations (EC50) were calculated by non-linear regression analysis using the drc package in R (R Development. Core Team, 2005). EC50 categories as presented in Table 2 were calculated by averaging the EC50 values from four picornaviruses (CVB1, HRV-A2, HRV-A23, EV68).

PLA2G16 = molecular target: T1, PLA2G16 (Homo sapiens, UniProt P53816); test: Enzyme activity assay for PLA2G16 (Red/Green BODIPY PC-A2 fluorescence); assay type: biochemical; conditions: His-tagged PLA2G16, 4 min pre-incubation, compound 2 nM to 50 μM; first symbol in parentheses
T1 construct: Hexa-His (N); made in house; host or cells: E. coli BL21(DE3)
T1 sequence (P53816 1-162): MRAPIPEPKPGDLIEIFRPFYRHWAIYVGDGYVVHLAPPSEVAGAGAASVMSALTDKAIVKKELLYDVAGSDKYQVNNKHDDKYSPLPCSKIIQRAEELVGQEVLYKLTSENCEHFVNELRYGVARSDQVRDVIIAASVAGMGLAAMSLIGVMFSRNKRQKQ
Excerpt: Purification and Enzyme Activity Assay for PLA2G16
A cDNA for PLA2G16 (NM_007069) was custom-synthesized by Genscript (Piscataway, USA) and inserted into a pET-based bacterial expression vector [Moffatt, B. A. and Studier, F. W. (1986) J. Mol. Biol. 189, 113-130; Rosenberg, A. H., Lade, B. N., Chui, D., Lin, S., Dunn, J. J., and Studier, F. W. (1987) Gene 56, 125-135], enabling the expression of N-terminally Hexa-His-tagged PLA2G16. E. coli BL21(DE3) (Agilent) were transformed with pET-His-PLA2G16 according to the manufacturer's instructions and plated on Carbenicillin-containing agar plates (final concentration: 100 μg/mL). A single clone was inoculated in 100 mL LB medium supplemented with 100 μg/mL Carbenicillin and the inoculated culture was grown at 37° C. overnight in a rotary shaker. On the next day, the bacterial culture was diluted in LB medium supplemented with 100 μg/mL Carbenicillin (30 mL overnight culture in 800 mL total culture volume). Bacteria were grown at 37° C. until the OD600 reached 0.6. Gene expression was induced by addition of 1 mM isopropyl-β-D-thiogalactopyranosid (IPTG) for 2 h at 18° C. Subsequently, bacteria were harvested by centrifugation (15 min; 10,000×g; 4° C.) and frozen at −80° C. The bacterial pellet was resuspended in Buffer A (50 mM Tris/HCl pH 7.5, 500 mM NaCl, 5% glycerol, 5 mM β-Mercaptoethanol and 1 mM PMSF) and lysed by addition of 1 mg/mL lysozyme (Sigma Aldrich) and 100 μg/mL DNasel-(Roche). The sample was incubated at 30° C. for 30 min to allow lysis to occur. Then, the lysate was cleared by centrifugation (15,000×g, 15 min, 4° C.) and incubated with 1.5 mL Ni-NTA agarose suspension (Qiagen) for 60 min at 4° C. The Ni-NTA agarose was washed with 10 mL Buffer A. Bound protein was eluted by applying a manual gradient of Buffer A supplemented with increasing concentrations of imidazole (Sigma Aldrich; 25/50/75/100/250 mM). Purified fractions were analyzed by SDS-PAGE followed by Coomassie staining to assess the purity.
Activity of the protein was assessed as follows:
Red/Green BODIPY® PC-A2 (Invitrogen, 1 mM in DMSO) was mixed with equal volumes of 1,2-Dioleoyl-sn-glycero-3-phosphocholine (DOPC; Sigma Aldrich, 10 mM in Ethanol) and 1,2-Dioleoyl-sn-glycero-3-phospho-rac-(1-glycerol) (DOPG; Sigma Aldrich, 10 mM in Ethanol) and 0.5 volumes of Cholesterol (CHOL; Sigma Aldrich, 10 mM in Ethanol) and vortexed for 5 s. The mixture (Red/Green BODIPY® PC-A2/DOPC/DOPG/CHOL) was diluted 1:91.4 in activity assay buffer (50 mM Tris/HCl pH 8.5, 100 mM NaCl) using a small-orifice pipette tip under constant vortexing. In the following, this preparation will be referred to as the “substrate solution”.
In order to evaluate their inhibitory potential, compounds were dissolved at 10 mM concentration in DMSO and directly spotted into assay plates (Corning, Cat. No. 3576) using acoustic liquid transfer (Labcyte Echo 525). Each compound was spotted at increasing concentrations, ranging from 2 nM to 50 μM (concentration in the final assay volume). 50 μl of PLA2G16 enzyme solution (diluted in activity buffer, supplemented with 5 mM L-Glutathione; Sigma Aldrich) was pre-incubated with compounds for 4 min., followed by addition of 50 μl of substrate solution. Fluorescence was recorded immediately after substrate addition for a total time of 10 min. using a SpectraMax M5 multimode reader (Excitation wavelength: 480 nm, emission wavelength: 530 nm). The relative increase of fluorescence over time is referred to as the enzyme activity. Half-maximal inhibitory concentrations (IC50) were derived by non-linear regression analysis using the drc package in R (R Development. Core Team, 2005).

EC50 [1] [nM]	IC50 (PLA2G16) [nM]	Structure (SMILES)
< 1000	< 1000	CC(C)CNC(=O)C(=O)[C@H]1CN(CC(N)=O)C(=O)[C@@H]1Cc1ccccc1 (racemic) [FP-40, Rac-2-[(3R,4R)-4-benzyl-1-(carbamoylmethyl)-5-oxopyrrolidin-3-yl]-N-(2-methylpropyl)-2-oxoacetamide]
< 1000	< 1000	O=C(NC1CC1)C(=O)[C@H]1CNC(=O)[C@@H]1Cc1ccccc1 (racemic) [FP-2, Rac-2-[(3R,4R)-4-benzyl-5-oxopyrrolidin-3-yl]-N-cyclopropyl-2-oxoacetamide]
> 10000	1000 to 10000	Cn1ncnc1CN1C[C@@H](C(=O)C(=O)NC2CC2)[C@H](Cc2ccccc2)C1=O (single isomer, unassigned) [FP-97]
< 1000	< 1000	O=C(NCC1CC1)C(=O)[C@H]1CNC(=O)[C@@H]1Cc1ccc(F)cc1 (racemic) [FP-31, Rac-N-(cyclopropylmethyl)-2-[(3R,4R)-4-[(4-fluorophenyl)methyl]-5-oxopyrrolidin-3-yl]-2-oxoacetamide]
1000 to 10000	< 1000	Cc1cc(CN2C[C@H](C(=O)C(=O)NC3CC3)[C@@H](c3ccccc3)C2=O)no1 (racemic) [FP-100, Rac-N-cyclopropyl-2-[(3R,4S)-1-[(5-methyl-1,2-oxazol-3-yl)methyl]-5-oxo-4-phenylpyrrolidin-3-yl]-2-oxoacetamide]
< 1000	< 1000	O=C(NC1CCC1)C(=O)[C@H]1CNC(=O)[C@@H]1c1ccccc1 (racemic) [FP-19, Rac-N-cyclobutyl-2-oxo-2-[(3R,4S)-5-oxo-4-phenylpyrrolidin-3-yl]acetamide]
< 1000	< 1000	CC(F)(F)CNC(=O)C(=O)[C@H]1CN(c2cccc(OCc3ccccc3)n2)C(=O)[C@@H]1Cc1ccccc1 (racemic) [FP-73, Rac-2-[(3R,4R)-4-benzyl-1-[6-(benzyloxy)pyridin-2-yl]-5-oxopyrrolidin-3-yl]-N-(2,2-difluoropropyl)-2-oxoacetamide]
1000 to 10000	< 1000	CCNC(=O)C(=O)[C@H]1CN(Cc2ncccn2)C(=O)[C@@H]1Cc1ccccc1 (racemic) [FP-36, Rac-2-[(3R,4R)-4-benzyl-5-oxo-1-[(pyrimidin-2-yl)methyl]pyrrolidin-3-yl]-N-ethyl-2-oxoacetamide]
1000 to 10000	< 1000	CC(F)(F)CNC(=O)C(=O)[C@H]1CNC(=O)[C@@H]1c1ccccc1 (racemic) [FP-11, Rac-N-(2,2-difluoropropyl)-2-oxo-2-[(3R,4S)-5-oxo-4-phenylpyrrolidin-3-yl]acetamide]
< 1000	< 1000	CCNC(=O)C(=O)[C@H]1CN(CC(F)F)C(=O)[C@@H]1Cc1ccccc1 (racemic) [FP-50, Rac-2-[(3R,4R)-4-benzyl-1-(2,2-difluoroethyl)-5-oxopyrrolidin-3-yl]-N-ethyl-2-oxoacetamide]
< 1000	< 1000	CC(F)(F)CNC(=O)C(=O)[C@H]1CN(c2cncnc2)C(=O)[C@@H]1Cc1ccccc1 (racemic) [FP-56, Rac-2-[(3R,4R)-4-benzyl-5-oxo-1-(pyrimidin-5-yl)pyrrolidin-3-yl]-N-(2,2-difluoropropyl)-2-oxoacetamide]

The remaining lines, values behind:

Structure (SMILES)	EC50 [1] [nM]	IC50 (PLA2G16) [nM]
CC(C)NC(=O)C(=O)[C@H]1CNC(=O)[C@@H]1c1ccccc1 (racemic) [FP-78, Rac-2-oxo-2-[(3R,4S)-5-oxo-4-phenylpyrrolidin-3-yl]-N-(propan-2-yl)acetamide]	1000 to 10000	< 1000
O=C(NCC(F)(F)C(F)(F)F)C(=O)[C@H]1CNC(=O)[C@@H]1c1ccccc1 (racemic) [FP-25, Rac-2-oxo-2-[(3R,4S)-5-oxo-4-phenylpyrrolidin-3-yl]-N-(2,2,3,3,3-pentafluoro-propyl)acetamide]	1000 to 10000	< 1000
COc1ccc(CN2C[C@H](C(=O)C(=O)NC3CC3)[C@@H](c3ccccc3)C2=O)cc1 (racemic) [FP-102, Rac-N-cyclopropyl-2-[(3R,4S)-1-[(4-methoxyphenyl)methyl]-5-oxo-4-phenylpyrrolidin-3-yl]-2-oxoacetamide]	< 1000	< 1000
CC(F)(F)CNC(=O)C(=O)[C@H]1CN(c2cncnc2C#N)C(=O)[C@@H]1Cc1ccccc1 (racemic) [FP-66, Rac-2-[(3R,4R)-4-benzyl-1-(4-cyanopyrimidin-5-yl)-5-oxopyrrolidin-3-yl]-N-(2,2-difluoropropyl)-2-oxoacetamide]	1000 to 10000	< 1000
O=C(NC1CC1)C(=O)[C@H]1CNC(=O)[C@@H]1Cc1ccc(F)cc1 (racemic) [FP-29, Rac-N-cyclopropyl-2-[(3R,4R)-4-[(4-fluorophenyl)methyl]-5-oxopyrrolidin-3-yl]-2-oxoacetamide]	< 1000	< 1000
Cn1cnc(CN2C[C@H](C(=O)C(=O)NC3CC3)[C@@H](Cc3ccc(F)cc3)C2=O)n1 (racemic) [FP-51, Rac-N-cyclopropyl-2-[(3R,4R)-4-[(4-fluorophenyl)methyl]-1-[(1-methyl-1H-1,2,4-triazol-3-yl)methyl]-5-oxopyrrolidin-3-yl]-2-oxoacetamide]	1000 to 10000	< 1000
COCCN1C[C@H](C(=O)C(=O)NC2CC2)[C@@H](Cc2ccccc2)C1=O (racemic) [FP-39, Rac-2-[(3R,4R)-4-benzyl-1-(2-methoxyethyl)-5-oxopyrrolidin-3-yl]-N-cyclopropyl-2-oxoacetamide]	1000 to 10000	< 1000
O=C(NC1CC1)C(=O)[C@@H]1CN(c2cnccn2)C(=O)[C@H]1Cc1ccccc1 (single isomer, unassigned) [FP-94]	1000 to 10000	< 1000
